In general, IC50 refers to the midpoint of a concentration-inhibition curve. Low readings indicate inhibition by little substance, high ones a need for much substance.

The record followed here is patent US20070213310A1, “Prodrugs for Use as Ophthalmic Agents” (priority 2002, published 2007).

Each structure is given as a SMILES string. “Also recorded” adds a separate entry of the source. Where two headings read alike, the source gives them in different places.

Data set [1] is described as follows: Lipid peroxidation inhibition, thiobarbituric acid reactive substances (TBARS) method. The data set is classed as biochemical. The note with it: inhibition of lipid peroxidation. The source says: (§1) Because lipid peroxidation (LPO) is a common marker of damage induced by reactive oxygen species (ROS) (Gutteridge JMC, “Lipid-peroxidation and antioxidants as biomarkers of tissue-damage,” Clin Chem, 41: 1819-1828 (1995); Kaur and Geetha, “Screening methods for antioxidants—A review,” Mini-Rev Med Chem, 6: 305-312 (2006)), two assays were employed to measure capacity to inhibit LPO: the ferric thiocyanate (FTC) and the thiobarbituric acid reactive substances (TBARS) methods. With these assays, the autoxidation of linoleic acid (a lipid model) is measured in the absence and, then, presence of different concentration of antioxidants. […] During the oxidation process, peroxide is gradually decomposed to lower molecular-weight compounds such as malondialdehyde (MDA) that is measured by the TBARS method (Kikuzaki and Nakatani, J Food Sci, 58: 1407-1410 (1993)). […]
(§2) The TBARS assay is a widely adopted and sensitive method for measurement of lipid peroxidation (Callaway J K, Beart P M and Jarrott B. “A reliable procedure for comparison of antioxidants in rat brain homogenates.” J Pharmacol Toxicol Meth, 39: 155-162 (1998)). […] The MDA-TBA complex measured by the TBARs assay is a gauge of LOOH formation (Janero D R. “Malondialdehyde and thiobarbituric acid-reactivity as diagnostic indices of lipid peroxidation and peroxidative tissue injury.” Free Rad Biol Med, 9: 515-540 (1990)). […]

Data set [2] is described as follows: logP measured by the shake-flask method. The data set is classed as physicochemical.
Data set [3] in a line: Lipid peroxidation inhibition, ferric thiocyanate (FTC) method. The conditions noted are these: inhibition of lipid peroxidation. The data set is classed as biochemical.
Source text: as §1, §2

Data set [4] concerns Human retinal ganglial cells (RGC). Nature of the data set: Viability of retinal ganglial cells (RGC) incubated with glutamate. The data set is classed as cell-based. The note with it: for effect on RGC viability, compound alone: without glutamate; for RGC killed by glutamate in the presence of the compound: glutamate 5 mM plus compound (three concentrations). Here is the method:
Human retinal ganglial cells (RGC) were incubated with glutamate (5 mM), the estrogen analogue 3,17-dihydroxyestra-1,3,5(10),9(11)-tetraene (ZYC1) or combination of glutamate and various concentrations of ZYC1.
RGC were treated with glutamate (5 mM) in the presence or absence of ZYC1.

For data set [5] the following is noted: 37° C.
Method: By way of example, conversion of Formula II by NAD(P)H as an endogenous reducing agent was tested. […] At incremental time points, 100 μl aliquots were removed into ice-cold centrifuge tubes, and 100 μl of glacial acetic acid was added. After immediate extraction with ethyl acetate, the organic layer was evaporated under nitrogen stream. […] For the control experiment, no reducing agent was used.
Liquid chromatography separation was done using a Supelco (Bellfonte, Pa.) 5 cm×2.1 mm i.d. Discovery HS C-18 reversed-phase column with 0.25 ml/min water:methanol:2-propanol:acetic acid:dichloromethane (53:35:5:5:2, v/v) as a mobile phase. The sample residues were dissolved in 40 μl of mobile phase, respectively, and 5 μl of the solution was injected for analysis. Mass spectra were recorded on a quadruple ion-trap instrument (LCQ®, ThermoFinnigan, San Jose, Calif.) using positive-ion atmospheric-pressure chemical ionization (APCI) as the method of ionization. MS/MS and MS^3 product-ion scans were obtained after collision-induced dissociation (CID) with helium as the target gas. […] As an internal standard, 1,3,5(10)-estratrien-17α-ethynyl-17β-ol was added before each sample extraction.

`C[C@]12CC[C@@H]3c4cc(C56CC7CC(CC(C7)C5)C6)c(O)cc4CC[C@H]3[C@@H]1CC[C@@H]2O` [2-(1-adamantyl)-estra-1,3,5(10)-triene-3,17β-diol]: the IC50 came to 0.75 ± 0.11 µM in data set [1] and 1.5 ± 0.1 µM in data set [3]. In data set [2], this molecule came in with a logP of 6.51.

For `N[C@@H](CCC(=O)O)C(=O)O` [glutamate, reference compound], in data set [4] (glutamate 5 mM alone), the “RGC killed by glutamate” value is “about 70%”.

As for `C[C@]12CC[C@@H]3c4cc(C56CC7CC(CC(C7)C5)C6)c(O)cc4CC[C@H]3[C@@H]1CCC2=O` [ZYC3, 2-(1-adamantyl)-3-hydroxyestra-1,3,5(10)-trien-17-one], the IC50 in data set [1] was 5.8 ± 1.3 µM. In data set [4], the “effect on RGC viability, compound alone” value is on record as “no affect” and the “RGC killed by glutamate in the presence of the compound” value is recorded as “killed significantly fewer cells”. In data set [3], the half-inhibitory concentration (IC50) is 5.3 ± 1.2 µM.

In data set [5] (10-fold excess NADPH, 0.1 mM quinol, 0.1M sodium phosphate buffer pH 7.5), `C[C@]12CC[C@H]3[C@@H](CCC4=CC(=O)C=C[C@@]43O)[C@@H]1CCC2=O` [estrone quinol, 10β-hydroxyestra-1,4-diene-3,17-dione] displayed a rate of conversion of 6e-07 ± 4e-08 M/min. For the same molecule, the formation of estrone entry in data set [5] (incubation with NADH or NADPH, pH 7.5) is on record as “clearly detectable”.

Take `C[C@]12CC=C3c4ccc(O)cc4CC[C@H]3[C@@H]1CCC2O` (some centres unmarked) [ZYC1, 3,17-dihydroxyestra-1,3,5(10),9(11)-tetraene]: in data set [4], the “effect on RGC viability, compound alone” value was “no effect” and the “RGC killed by glutamate in the presence of the compound” value is “killed significantly fewer cells; also recorded: reduced the number of RGC killed by glutamate”.

Consider `C[C@]12CC[C@@H]3c4ccc(O)cc4C[C@@H](CCCCCCCCC[S+]([O-])CCCC(F)(F)C(F)(F)F)[C@H]3[C@@H]1CC[C@@H]2O` (some centres unmarked) [IC1182,780, reference compound], for which the “antagonism of ZYC1 protection of RGC” value in data set [4] (glutamate 5 mM, ZYC1 plus various concentrations of estrogen receptor antagonist) is recorded as “little antagonism”.

For `C[C@]12CC[C@H]3[C@@H](CCC4=CC(=O)C(C56CC7CC(CC(C7)C5)C6)=C[C@@]43O)[C@@H]1CC[C@@H]2O` [2-(1-adamantyl)-10β,17β-dihydroxyestra-1,4-dien-3-one], in data set [2] (n-octanol/water, shake-flask, read-out: logPexp), the logP worked out at 3.26.
